From publication PMC7076374, “Improved Pharmacokinetics and Tissue Uptake of Complexed Daidzein in Rats” (Pharmaceutics, 2020)
Like-named read-outs stand apart in the source and are kept apart here.

How the values were obtained:
in vivo [1] = settings: rat, iv, 20 mg/kg
Description: (§1) DAI in the form of a suspension in saline was administered to the rats at the doses of 20 mg/kg (i.v.) and 50 mg/kg (i.p.).
Blood samples were collected via a retro-orbital puncture at 15 min, 30 min, 3 h, 5 h, and 24 h after i.v. administration. The first two blood samples (at 15 min and 30 min) were withdrawn while the rats were still under general anesthesia. For the later time-points, the blood was taken under a short isoflurane anesthesia. One mL of saline was administered i.p. after every blood withdrawal to compensate the loss of water. The rats were sacrificed by decapitation 24 h after compound administration. All blood samples were centrifuged to obtain serum. The serum samples were frozen in a freezer at −80 °C.
(§2) PK parameters were calculated using a non-compartmental approach from the average concentration values, using Phoenix WinNonlin software (Certara, St. Louis, MO, USA). The first-order elimination rate constant (λz) was calculated by linear regression of log concentration versus time. The area under the mean serum and tissue concentration versus time curve (AUC0⟶t) was calculated from zero to the last concentration point using the linear trapezoidal rule as (1) AUC0→t=∑i=1nCi+Ci+1/2·(ti+1−ti) where Ci is the concentration of the compound.
(§3) The area under the first-moment curve (AUMC0⟶t) was estimated by calculation of the total area under the first-moment curve:(2) AUMC0→t=∑i=1n((ti·Ci+ti+1·Ci+1)/2)·(ti+1−ti) where ti is the […].
(§4) Mean residence time (MRT) was calculated as (3) MRT=AUMC0→t/AUC0→t
Systemic clearance (Cl) was calculated as (4) Cl=Div/AUC0→t
The volume of distribution at steady state (Vss) was calculated as (5) Vss=Div⋅AUMC0→t/(AUC0→t)^2

in vivo [2] = settings: for tmax: DAI in suspension, i.p. 50 mg/kg, rat serum
Description: as §1
The second study was conducted in 48 animals to assess DAI tissue penetration and bioavailability. […] Animals were deeply anaesthetized by i.p. injections of 50 mg/kg ketamine plus 8 mg/kg xylazine before sacrifice. First, the blood was collected by retro-orbital puncture, and the blood samples were centrifuged to obtain serum. The serum samples were frozen in a freezer at −80 °C. A whole-body saline perfusion was then performed after wide laparotomy when the heart was exposed, and the tip of the needle was inserted into the left ventricle and the right atrium was cut to allow efflux of blood. This procedure allowed the blood from all tissues to be washed out to determine the amount of DAI in the tissue, excluding its content in the blood. Following the animals’ euthanasia, the following samples were collected: whole brain, whole eyes, liver lobe, abdominal fat, one kidney, whole spleen, one testis, and selected parts of heart and lungs. The brain was cut between hemispheres in halves; one half was weighed, inserted into 2 mL of SDS-tris lysing buffer (100 mM tris buffer, 10% glycerol, 1% sodium dodecyl sulfate), and homogenized with a tissue homogenizer. The other half of the brain, the homogenates, and all other tissue samples collected were immediately shock-frozen in liquid nitrogen and stored at −80 °C for future analysis.
as §2, §3, §4

[3] = healthy premenopausal women, cited from earlier work
[4] = male, rat, in vivo, ip, 50 mg/kg

O=c1c(-c2ccc(O)cc2)coc2cc(O)ccc12 [DAI in Suspension, 7-hydroxy-3-(4-hydroxyphenyl)-4H-chromen-4-one]
AUC (in vivo [1]): 1580 ng·h/mL | C0 (in vivo [1]): 6160 ng/mL | MRT (in vivo [1]): 4.29 h | clearance (in vivo [1]): 211 mL/min/kg | half-life (in vivo [1]): 230 min | tmax (in vivo [2]; 50 mg/kg): 45 min | bioavailability (in vivo [2]; male, rat, in vivo): 28.2% | AUC (in vivo [2]; [4]): 1110 ng·h/mL | CL/F (in vivo [2]; [4]): 775 mL/min/kg | MRT (in vivo [2]; [4]): 3.63 h | Vd/F (in vivo [2]; [4]): 220 L/kg | half-life (in vivo [2]; [4]): 205 min | Cmax (in vivo [2]; male, rat, in vivo, ip, 50 mg/kg, Cmax): 173 ng/mL | tmax (in vivo [2]; male, rat, in vivo, ip, 50 mg/kg, tmax): ≤ 45 min | Bioavailability of DAI ([3]; first value of '5.15% vs. 8.7%', at higher intakes): 5.15% | Bioavailability of DAI ([3]; second (comparison) value of '5.15% vs. 8.7%'): 8.7%
